# Like-named read-outs stand apart in the source and are kept apart here.
# Tested on: P. falciparum 3D7 gametocytes
# Assay: alamarBlue gametocyte viability assay, strain 3D7
# Assay type: cell-based, Plasmodium falciparum
# Settings: Malaria Box; for Max Resp: DMSO set at 0%, 100 nM epoxomicin set at -100%; for Curve Class / IC50: stages III-V 3D7 gametocytes; for IC50: 11 concentrations, 1:3 dilution; call rule not given here
SMILES,Max Resp [%],Curve Class,IC50 (read-out: IC50) [µM],IC50
COc1cccc(C(=O)NC(c2ccc(C)cc2)c2cc(Cl)c3cccnc3c2O)c1 (stereo not drawn) [MMV665969],-76,-2.2,11.8,
CCOC(=O)C1=C(C)N=c2sc(=Cc3cc(Cl)ccc3O)c(=O)n2C1c1ccc(OC)cc1 (stereo not drawn) [MMV665971],-40,-1.2,2.96,
O=C(Cc1ccccc1)NC(c1ccc(Cl)cc1)c1c(O)ccc2ccccc12 (stereo not drawn) [MMV665972],-62,-2.2,29.6,
CCOC(=O)c1cn(CC)c2cc(N(C)CCc3ccc(OC)c(OC)c3)c(F)cc2c1=O [MMV665977],2,4,,Inactive
FC(F)(F)c1cccc(CNC2CCN(CCc3ccccc3)CC2)c1 [MMV665979],-89,-2.1,14.8,
OC1CCCCC1C1(NC(=S)Nc2ccccc2)CCCCC1 (stereo not drawn) [MMV665980],-81,-2.1,11.8,
CCCCCCc1cc(O)c2c3c(c(=O)oc2c1)CCC(C)C3 (stereo not drawn) [MMV665987],0,4,,Inactive
Cc1nc2ccccc2c(O)c1CC=C(Cl)Cl [MMV665994],5,4,,Inactive
CN1c2ccccc2N(C)C1c1ccc2c(c1)OCO2 [MMV666009],-36,-2.4,,Inactive
Cc1ccc(OCCCCCCNCCO)c(C)c1 [MMV666020],-64,-2.2,37.2,
Cc1ccc(-c2cc3c(nn2)-c2ccccc2C3=O)cc1 [MMV666021],-4,4,,Inactive
COc1ccc(C(=O)NC(c2ccccc2Cl)c2cc(Cl)c3cccnc3c2O)cc1 (stereo not drawn) [MMV666022],-83,-2.1,14.8,
c1ccc(Cn2c(N=Nc3c(Nc4ccccc4)ccc4ccccc34)nc3ccccc32)cc1 [MMV666023],-89,-2.1,10.5,
OC(Cn1nnc2ccccc21)Cn1c2ccc(Br)cc2c2cc(Br)ccc21 (stereo not drawn) [MMV666025],-60,-2.2,37.2,
COc1ccc(-c2cc3c(nn2)-c2ccccc2C3=O)cc1 [MMV666026],0,4,,Inactive
COc1ccc(C(=O)NC(c2ccc(Cl)cc2Cl)c2cc(Cl)c3cccnc3c2O)cc1 (stereo not drawn) [MMV666054],-125,-2.1,16.6,
O=C(Nc1ccc(Cl)cc1C(=O)Nc1ccncc1)c1ccc(Cl)cc1Cl [MMV666057],-57,-2.2,29.6,
COc1ccc(CN2CCCC(C(=O)c3ccc(C(F)(F)F)cc3)C2)c(O)c1 (stereo not drawn) [MMV666060],-45,-1.2,1.05,
COc1cccc(O)c1CN1CCC2(CCCN(Cc3ccc(F)cc3)C2)C1 (stereo not drawn) [MMV666061],-57,-1.2,1.66,
Cc1ccc(N2C(=O)C3C(C2=O)C2(c4ccccc4)C(=O)C3(c3ccccc3)C(c3ccccc3)=C2c2ccccc2)cc1 (stereo not drawn) [MMV666062],12,4,,Inactive
COc1ccc(CNC2CCN(c3ccc(NC(=O)c4cccc(Cl)c4)cc3)CC2)cc1OC [MMV666067],-95,-2.1,14.8,
COc1ccc(CCN2CCC(CN(C)Cc3cnn(-c4ccccc4)c3)CC2)cc1 [MMV666069],-86,-2.1,10.5,
O=C(NC1CCCC1)c1ccc(N2CCC(NCc3cccc(C(F)(F)F)c3)CC2)cc1 [MMV666070],-47,-2.2,,Inactive
Cc1ccc(CN2CCC(C(=O)Nc3ccc(-c4cc5ccccc5[nH]4)cc3)CC2)o1 [MMV666071],-71,-2.2,29.6,
COCCNC(=O)c1ccc(OC2CCN(Cc3ccc(F)c(F)c3)CC2)c(Cl)c1 [MMV666072],12,4,,Inactive
COc1ccc(C2N(C)c3ccccc3N2C)cc1 [MMV666075],-34,-2.4,,Inactive
Cc1ccc2cc3c(N)c4c(C)ccc(C)c4nc3nc2c1 [MMV666079],-81,-2.1,16.6,
O=C(NC(c1ccccc1)c1ccc2cccnc2c1O)c1ccccc1 (stereo not drawn) [MMV666080],-75,-2.2,9.35,
CCCc1c(C)nc2ccccc2c1O [MMV666081],23,4,,Inactive

# From publication PMC3894558, “Chemical signatures and new drug targets for gametocytocidal drug development” (Scientific Reports, 2014)
